Results from patent US5616573A, “Glucocorticoids” (Schering Aktiengesellschaft, priority 1993, dated 1997).
Where a SMILES comes first, the peptide text is derived from it. [ ]: non-standard residue; d: D form. The star is where a group is joined. Methylprednisolone(17-OCOEt) = CCC(=O)O[C@]1(C(=O)CO*)CC[C@H]2[C@@H]3C[C@H](C)C4=CC(=O)C=C[C@]4(C)[C@H]3[C@@H](O)C[C@@]21C; X2 = C[C@@H]1C[C@H]2[C@@H]3C[C@H](F)C4=CC(=O)C=C[C@]4(C)[C@H]3[C@@H](O)C[C@]2(C)[C@H]1C(=O)CO*; X1 = C[C@H]1C[C@@H]2[C@H]([C@@H](O)C[C@@]3(C)[C@H]2CC[C@]3(O)C(=O)CO*)[C@@]2(C)C=CC(=O)C=C12; Fmoc = O=C(OCC1c2ccccc2-c2ccccc21)*; X6 = O=C(CCn1c2ccccc2c2ccccc21)*; MeOSuc = COC(=O)CCC(=O)*; Cbz = O=C(OCc1ccccc1)*; X4 = O=C(C=Cc1ccccc1)*; Boc = CC(C)(C)OC(=O)*; Aib = CC(C)(N)C(=O)O; CH2Cl = ClC*

Key:
Esterases of Rat Skin = test: Cleavage in the Homogenate of Normal Rat Skin (unspecific cleavage by esterases of rat skin); assay type: in vitro ADME; settings: percent of hydrolysis rate of 6α-methylprednisolone-17-propionate-21-acetate; approximately 100 μmol/l, pH=7.4, 37° C.
Protocol: (§1) The homogenate of the skin of male rats (0.1 mol/l of phosphate buffer, pH=7.4) is centrifuged for 20 minutes at 10,000 g. The supernatant is adjusted in phosphate buffer to a protein concentration of 3 mg/ml. The test substances in 20 μl of ethanol are added to 1 ml of this homogenate. The final concentration of the corticoid derivatives is approximately 100 μmol/l. The incubation takes place for different periods at 37° C. At the end of incubation, the samples are extracted three times with 3 ml of chloroform. The combined extracts are evaporated to dryness under nitrogen and taken up with 100 μl of ethanol. The ethanolic solutions are mixed with the same volume of water and the saponification products are separated by HPLC (RP 18, acetonitrile/water-gradient, detection 240 nm). The relative hydrolysis rate is indicated in percent of the hydrolysis rate of the 6α-methylprednisolone-17-propionate-21-acetate.

Leukocyte Elastase = target: T1, Leukocyte Elastase (Homo sapiens, UniProt P08246); test: Cleavage of Glucocorticoid-21-Oligopeptide Esters by Leukocyte Elastase in the lysate of human neutrophilic granulocytes; assay type: biochemical; settings: for Relative Hydrolysis Rate [%]: lysate of human neutrophilic granulocytes, 10^6 cells per ml, 1 hour at 37° C., Fmoc-Ala-Ala-Pro-Val-O-MPP is used as reference
T1 construct: also pure human sputum elastase (Elastin Products)
T1 sequence (P08246 30-267): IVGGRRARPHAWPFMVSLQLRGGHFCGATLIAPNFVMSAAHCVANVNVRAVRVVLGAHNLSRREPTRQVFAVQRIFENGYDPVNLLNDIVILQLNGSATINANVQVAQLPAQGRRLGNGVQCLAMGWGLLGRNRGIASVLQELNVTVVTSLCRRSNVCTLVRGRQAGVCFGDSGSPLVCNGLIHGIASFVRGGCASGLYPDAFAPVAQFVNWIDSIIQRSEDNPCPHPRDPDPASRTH
Protocol: as §1
Polymorphonuclear granulocytes are isolated from donor blood. The cells are lysed in a density of 10^6 cells per ml. 1 ml each of the lysate is mixed with 20 μl of ethanolic corticoid solution (5 mmol/l) After 1 hour of incubation at 37° C., the samples are extracted three times with 3 ml of chloroform and worked up as described above for HPLC analysis. The cleavage of the prodrugs according to the invention can be inhibited under these test conditions by the addition of the specific elastase inhibitor MeO-succinyl-Ala-Ala-Pro-Val-chloromethylketone to 90%. Furthermore, the compounds are also hydrolyzed by pure human sputum-elastase (elastin products).

rat ear = test: Local antiinflammatory action: modified rat ear test according to Tonelli (croton oil); assay type: in vivo; settings: topical, * = significant (p < 0.05); for Edema [% inhibition]: ear weight, 16 hours after irritant; for Infiltration [% inhibition]: granulocytic infiltrate (myeloperoxidase and leukocyte-elastase), 16 hours
Protocol: The antiinflammatory activity of the corticoid-21-oligopeptide esters is performed in a modified rat ear test according to Tonelli. The modifications are based on changes of irritant solution (4% croton oil, 10% DMSO in ethanol), the type of administration (application of the solution with pipette) and the evaluation of the test 16 hours after administration of the irritant solution. At this time, both the inhibition of the edema by measuring the ear weight and the inhibition of the granulocytic infiltrate by measuring the granulocyte marker myeloperoxidase and leukocyte-elastase in the ear homogenate can be determined. The group size was 6 animals in each case.

[1] = concentration 0.003 (unit not given)
[2] = concentration 0.03 (unit not given)
[3] = concentration 0.3 (unit not given)

CCCCC(=O)O[C@]1(C(=O)COC(=O)[C@@H](NC(=O)[C@@H]2CCCN2C(=O)[C@H](C)NC(=O)[C@H](C)NC(=O)OCC2c3ccccc3-c3ccccc32)C(C)C)[C@@H](C)C[C@H]2[C@@H]3CCC4=CC(=O)C=C[C@]4(C)[C@@]3(F)[C@@H](O)C[C@@]21C [Example 39, N-(N-(N-(N-(9H-Fluoren-9-yl-methoxycarbonyl)-L-alanyl)-L-alanyl) -L-prolyl)-L-valine [9α-fluoro-11β,21-dihydroxy-16β-methyl-3,20-dioxo-17-valeroyloxy-pregna-1,4-dien-21-yl] ester]
Relative Hydrolysis Rate [%] (Esterases of Rat Skin): 0%
Relative Hydrolysis Rate [%] (Leukocyte Elastase): 42%

CCC(=O)O[C@]1(C(=O)COC(C)=O)CC[C@H]2[C@@H]3C[C@H](C)C4=CC(=O)C=C[C@]4(C)[C@H]3[C@@H](O)C[C@@]21C [6α-methylprednisolone-17-propionate-21-acetate, reference compound]
Relative Hydrolysis Rate [%] (Esterases of Rat Skin): 100%
Edema [% inhibition] (rat ear; [1]): 44%
Infiltration [% inhibition] (rat ear; [1]): 12%
Edema [% inhibition] (rat ear; [2]): 62%
Infiltration [% inhibition] (rat ear; [2]): 45%
Edema [% inhibition] (rat ear; [3]): 67%
Infiltration [% inhibition] (rat ear; [3]): 78%

CCC(=O)O[C@]1(C(=O)COC(=O)[C@@H](NC(=O)[C@@H]2CCCN2C(=O)[C@H](C)NC(=O)[C@H](C)NC(=O)OCC2c3ccccc3-c3ccccc32)C(C)C)CC[C@H]2[C@@H]3C[C@H](C)C4=CC(=O)C=C[C@]4(C)[C@H]3[C@@H](O)C[C@@]21C [Example 4, N-(N-(N-(N-(9H-Fluoren-9-ylmethoxycarbonyl)-L-alanyl)-L-alanyl) -L-prolyl)-L-valine [11β,21-dihydroxy-3,20-dioxo-6α-methyl-17-propionyloxy-pregna-1,4-dien-21-yl] ester] (Fmoc-AAPV-{Methylprednisolone(17-OCOEt)})
Relative Hydrolysis Rate [%] (Esterases of Rat Skin): 4%
Relative Hydrolysis Rate [%] (Leukocyte Elastase): 100%
Edema [% inhibition] (rat ear; [1]): 30%
Infiltration [% inhibition] (rat ear; [1]): 16%
Edema [% inhibition] (rat ear; [2]): 48%
Infiltration [% inhibition] (rat ear; [2]): 42%
Edema [% inhibition] (rat ear; [3]): 78%
Infiltration [% inhibition] (rat ear; [3]): 66%

CCC(=O)O[C@]1(C(=O)COC(=O)[C@@H](NC(=O)[C@@H]2CCCN2C(=O)[C@H](C)NC(=O)[C@H](C)NC(=O)OC(C)(C)C)C(C)C)CC[C@H]2[C@@H]3C[C@H](C)C4=CC(=O)C=C[C@]4(C)[C@H]3[C@@H](O)C[C@@]21C [Example 3, N-(N-(N-(N-(1,1-Dimethylethoxycarbonyl)-L-alanyl)-L-alanyl)-L -prolyl)-L-valine [11β,21-dihydroxy-3,20-dioxo-6α-methyl-17-propionyloxy-pregna-1,4-dien-21-yl] ester] (Boc-AAPV-{Methylprednisolone(17-OCOEt)})
Relative Hydrolysis Rate [%] (Esterases of Rat Skin): 50%
Relative Hydrolysis Rate [%] (Leukocyte Elastase): 160-190%
Edema [% inhibition] (rat ear; [1]): 17%
Infiltration [% inhibition] (rat ear; [1]): 11%
Edema [% inhibition] (rat ear; [2]): 51%
Infiltration [% inhibition] (rat ear; [2]): 43%
Edema [% inhibition] (rat ear; [3]): 81%
Infiltration [% inhibition] (rat ear; [3]): 77%

CCC(=O)O[C@]1(C(=O)COC(=O)[C@@H](NC(=O)[C@@H]2CCCN2C(=O)[C@H](C)NC(=O)[C@H](C)NC(=O)OCc2ccccc2)C(C)C)CC[C@H]2[C@@H]3C[C@H](C)C4=CC(=O)C=C[C@]4(C)[C@H]3[C@@H](O)C[C@@]21C [Example 5, N-(N-(N-(N-(Phenylmethoxycarbonyl)-L-alanyl)-L-alanyl)-L-prolyl) -L-valine [11β21-dihydroxy-3,20-dioxo-6α-methyl-17-propionyloxy-pregna-1,4-dien-21-yl] ester] (Cbz-AAPV-{Methylprednisolone(17-OCOEt)})
Relative Hydrolysis Rate [%] (Leukocyte Elastase): 160-230%

COC(=O)CCC(=O)N[C@@H](C)C(=O)N[C@@H](C)C(=O)N1CCC[C@H]1C(=O)N[C@H](C(=O)CCl)C(C)C [MeO-succinyl-Ala-Ala-Pro-Val-chloromethylketone, reference compound] (MeOSuc-AAPV-CH2Cl)
Inhibition of the cleavage of the prodrugs (Leukocyte Elastase; addition of the specific elastase inhibitor to granulocyte lysate): 90%

CC(C)[C@H](NC(=O)[C@@H]1CCCN1C(=O)[C@H](C)NC(=O)[C@H](C)NC(=O)OCC1c2ccccc2-c2ccccc21)C(=O)OCC(=O)[C@@]1(O)CC[C@H]2[C@@H]3C[C@H](C)C4=CC(=O)C=C[C@]4(C)[C@H]3[C@@H](O)C[C@@]21C [Example 22] (Fmoc-AAPV-X1)
Relative Hydrolysis Rate [%] (Esterases of Rat Skin): 6%
Relative Hydrolysis Rate [%] (Leukocyte Elastase): 370%

CCC(=O)O[C@]1(C(=O)COC(=O)[C@@H](NC(=O)[C@@H]2CCCN2C(=O)[C@H](C)NC(=O)[C@H](C)NC(=O)CCn2c3ccccc3c3ccccc32)C(C)C)CC[C@H]2[C@@H]3C[C@H](C)C4=CC(=O)C=C[C@]4(C)[C@H]3[C@@H](O)C[C@@]21C [Example 16, N-(N-(N-(N-(3-(Carbazol-9-yl)-propionyl)-L-alanyl)-L-alanyl)-L -prolyl)-L-valine [11β,21-dihydroxy-3,20-dioxo-6α-methyl-17-propionyloxy-pregna-1,4-dien-21-yl] ester] (X6-AAPV-{Methylprednisolone(17-OCOEt)})
Relative Hydrolysis Rate [%] (Esterases of Rat Skin): 3%

CCC(=O)O[C@]1(C(=O)COC(=O)[C@@H](NC(=O)[C@@H]2CCCN2C(=O)[C@H](C)NC(=O)[C@H](C)NC(=O)C=Cc2ccccc2)C(C)C)CC[C@H]2[C@@H]3C[C@H](C)C4=CC(=O)C=C[C@]4(C)[C@H]3[C@@H](O)C[C@@]21C [Example 13] (X4-AAPV-{Methylprednisolone(17-OCOEt)})
Relative Hydrolysis Rate [%] (Esterases of Rat Skin): 5%

CCC(=O)O[C@]1(C(=O)COC(=O)[C@@H](NC(=O)[C@@H]2CCCN2C(=O)[C@H](C)NC(=O)[C@H](C)NC(=O)C(C)(C)NC(=O)OCC2c3ccccc3-c3ccccc32)C(C)C)CC[C@H]2[C@@H]3C[C@H](C)C4=CC(=O)C=C[C@]4(C)[C@H]3[C@@H](O)C[C@@]21C [Example 18, N-(N-(N-(N-(N-((9H-Fluoren-9-ylmethoxy)carbonyl)-2-amino-2-methyl-propionyl)-L-alanyl)-L-alanyl)-L-prolyl)-L-valine [11β,21-dihydroxy-3,20-dioxo-6α-methyl-17-propionyloxy-pregna-1,4-dien-21-yl] ester] (Fmoc-[Aib]AAPV-{Methylprednisolone(17-OCOEt)})
Relative Hydrolysis Rate [%] (Leukocyte Elastase): 130%

CC(C)[C@H](NC(=O)[C@@H]1CCCN1C(=O)[C@H](C)NC(=O)[C@H](C)NC(=O)OC(C)(C)C)C(=O)OCC(=O)[C@H]1[C@H](C)C[C@H]2[C@@H]3C[C@H](F)C4=CC(=O)C=C[C@]4(C)[C@H]3[C@@H](O)C[C@@]21C [Example 32, N-(N-(N-(N-((1,1-Dimethyl)-ethoxycarbonyl)-L-alanyl)-L-alanyl)-L -prolyl)-L-valine [6α-fluoro-11β,21-dihydroxy-16α-methyl-3,20dioxo-pregna-1,4-dien-21-yl] ester] (Boc-AAPV-X2)
Relative Hydrolysis Rate [%] (Leukocyte Elastase): 380%
